Measurements: publication PMC5829162, “Rational Design, Synthesis and Biological Evaluation of Pyrimidine-4,6-diamine derivatives as Type-II inhibitors of FLT3 Selective Against c-KIT” (Scientific Reports, 2018)
Like-named read-outs stand apart in the source and are kept apart here.

Legend:
[1] = molecular target: T1, FLT3 kinase (Homo sapiens, UniProt P36888); assay: Biochemical enzyme inhibition assay (microfluidics, Caliper EZ Reader II), FLT3; conditions: for IC50: in vitro kinase assay, 60 min pre-incubation, ATP 190 µM, three independent experiments, read-out: FLT3 IC50 (nM) ± SD; for LE: ligand efficiency for FLT3 inhibition
T1 construct: purchased Invitrogen
T1 sequence (P36888 27-993): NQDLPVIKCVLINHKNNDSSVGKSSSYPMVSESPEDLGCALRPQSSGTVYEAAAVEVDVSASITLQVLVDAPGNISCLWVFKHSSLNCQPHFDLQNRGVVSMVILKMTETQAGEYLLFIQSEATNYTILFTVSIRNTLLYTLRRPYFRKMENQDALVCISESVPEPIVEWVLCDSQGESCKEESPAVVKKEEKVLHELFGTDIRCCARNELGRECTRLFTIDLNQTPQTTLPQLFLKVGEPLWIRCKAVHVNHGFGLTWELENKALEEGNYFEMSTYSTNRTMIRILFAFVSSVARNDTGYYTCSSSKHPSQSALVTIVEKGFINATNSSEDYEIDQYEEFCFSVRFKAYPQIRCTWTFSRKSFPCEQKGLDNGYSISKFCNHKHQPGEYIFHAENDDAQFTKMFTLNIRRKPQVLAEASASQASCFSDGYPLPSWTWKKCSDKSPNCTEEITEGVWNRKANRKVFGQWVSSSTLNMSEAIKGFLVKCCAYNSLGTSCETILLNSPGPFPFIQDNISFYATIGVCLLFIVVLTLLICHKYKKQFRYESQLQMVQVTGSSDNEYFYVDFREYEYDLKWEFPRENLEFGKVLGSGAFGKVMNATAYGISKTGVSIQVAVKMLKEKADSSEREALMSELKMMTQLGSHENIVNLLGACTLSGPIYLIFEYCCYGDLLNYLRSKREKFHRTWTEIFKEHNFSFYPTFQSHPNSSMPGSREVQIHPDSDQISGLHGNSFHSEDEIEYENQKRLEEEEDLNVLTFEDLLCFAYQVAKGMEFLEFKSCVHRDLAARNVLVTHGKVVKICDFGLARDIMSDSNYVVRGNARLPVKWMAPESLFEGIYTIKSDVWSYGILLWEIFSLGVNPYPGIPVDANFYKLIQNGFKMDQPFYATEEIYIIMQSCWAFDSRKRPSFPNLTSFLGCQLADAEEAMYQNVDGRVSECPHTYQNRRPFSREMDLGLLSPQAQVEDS

[2] = molecular target: CSF-1R (Homo sapiens, UniProt P07333); assay: Biochemical kinase selectivity assay, CSF-1R
Sequence of CSF-1R (P07333 20-972, species assumed): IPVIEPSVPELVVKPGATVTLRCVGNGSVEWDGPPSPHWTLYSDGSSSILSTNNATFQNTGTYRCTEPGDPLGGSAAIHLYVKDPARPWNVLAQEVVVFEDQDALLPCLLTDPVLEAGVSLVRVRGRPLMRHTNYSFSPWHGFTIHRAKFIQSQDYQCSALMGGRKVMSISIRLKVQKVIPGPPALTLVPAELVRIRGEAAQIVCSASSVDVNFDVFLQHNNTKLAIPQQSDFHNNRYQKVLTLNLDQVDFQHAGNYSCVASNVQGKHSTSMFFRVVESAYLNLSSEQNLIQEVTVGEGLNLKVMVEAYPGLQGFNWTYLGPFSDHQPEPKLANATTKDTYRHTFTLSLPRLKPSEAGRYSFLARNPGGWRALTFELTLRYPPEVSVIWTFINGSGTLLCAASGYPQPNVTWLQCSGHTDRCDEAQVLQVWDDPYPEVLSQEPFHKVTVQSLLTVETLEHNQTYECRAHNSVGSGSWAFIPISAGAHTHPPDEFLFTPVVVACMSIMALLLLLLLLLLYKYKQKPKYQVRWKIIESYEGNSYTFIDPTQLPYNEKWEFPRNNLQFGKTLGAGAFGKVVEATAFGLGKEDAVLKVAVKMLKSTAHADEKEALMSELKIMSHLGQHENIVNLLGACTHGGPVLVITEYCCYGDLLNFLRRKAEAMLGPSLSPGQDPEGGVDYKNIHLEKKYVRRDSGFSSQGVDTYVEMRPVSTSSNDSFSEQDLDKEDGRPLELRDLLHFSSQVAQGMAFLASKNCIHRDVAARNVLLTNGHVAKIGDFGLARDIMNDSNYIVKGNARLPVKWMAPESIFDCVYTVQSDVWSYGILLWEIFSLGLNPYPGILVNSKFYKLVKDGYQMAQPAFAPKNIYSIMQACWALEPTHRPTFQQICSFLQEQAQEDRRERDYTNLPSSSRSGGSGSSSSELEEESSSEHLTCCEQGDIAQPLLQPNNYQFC

[3] = molecular target: Aurora B (Homo sapiens, UniProt Q96GD4); assay: Biochemical kinase selectivity assay, Aurora B
Sequence of Aurora B (Q96GD4 whole entry): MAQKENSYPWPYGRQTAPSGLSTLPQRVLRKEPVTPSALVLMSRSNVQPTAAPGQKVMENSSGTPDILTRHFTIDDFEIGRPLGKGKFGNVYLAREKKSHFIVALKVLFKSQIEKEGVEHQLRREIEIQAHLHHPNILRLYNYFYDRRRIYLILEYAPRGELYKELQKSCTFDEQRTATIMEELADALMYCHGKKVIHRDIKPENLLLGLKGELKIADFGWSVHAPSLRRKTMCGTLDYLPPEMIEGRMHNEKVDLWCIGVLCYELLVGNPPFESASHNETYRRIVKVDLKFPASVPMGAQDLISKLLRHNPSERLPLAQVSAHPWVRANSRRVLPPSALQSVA

[4] = test system: Molm14^D835Y; assay: Cell proliferation (CellTiter-Glo, 48 h), Molm14 D835Y; assay type: cell-based; conditions: for GI50: Homo sapiens, MOLM-14, Molm14^D835Y, 48 hours
Excerpt: Stable BaF3 populations expressing activated FLT3 were generated by retroviral spinfection with the appropriate mutated plasmid followed by selection and growth factor withdrawal as previously described. The BaF3 cell line was originally obtained from the laboratory of Charles Sawyers and has not been authenticated. MV411 and Molm14 cells were obtained from the laboratory of Scott Kogan and authenticated by Promega STR analysis in June 2013. All cell lines were mycoplasma-free. Cells were incubated with compounds for 48 hours and proliferation was assessed using CellTiter-Glo (Promega; Madison, WI) according to the manufacturer’s recommendation on a SpectraMax M3 microplate reader using SpectraMax Software (Molecular Devices; Sunnyvale, CA). All cell viability data shown is reflective of experiments performed a minimum of three times. […]
S13. Cell Cultures: Stable BaF3 populations expressing activated FLT3 were generated by retroviral spinfection with the appropriate mutated plasmid followed by selection and growth factor withdrawal as previously described .4 The BaF3 cell line was originally obtained from the laboratory of Charles Sawyers and has not been authenticated. MV411 and Molm14 cells were obtained from the laboratory of Scott Kogan and authenticated by Promega STR analysis in June
2013. All cell lines were mycoplasma -free. Cells were incubated with compounds for 48 hours and proliferation was assessed using CellTiter -Glo (Promega; Madison, WI) according to the manufacturer’s recommendation on a SpectraMax M3 microplate reader using SpectraMax Software (Molecular Devices; Sunnyvale, CA). All cell viability data shown is reflective of experiments performed a minimum of three times.

Cn1nc(C(C)(C)C)cc1NC(=O)Cc1ccc(Nc2cc(Nc3ccc(S(C)(=O)=O)cc3)ncn2)cc1 [13a, 2-(4-(6-(4-(Methylsulfonyl)phenylamino)pyrimidin-4-ylamino)phenyl)-N-(3-tert-butyl-1-methyl-1H-pyrazol-5-yl)acetamide]
fold less inhibition on other closely related kinases versus FLT3 ([1]; enzymatic level): > 100 fold
IC50 [1]: 13.9 nM
LE [1]: 0.28
IC50 ([2]; in vitro kinase assay, read-out: CSF-1R IC50 (nM) ± SD): 13000 nM
IC50 ([2]; read-out: CSF-1R IC50): 13000 nM
inhibition at 20 µM [3]: 79.8%
GI50 [4]: 1840 nM
fold reduction in cellular activity against Molm14^D835Y ([4]; relative to the parental FLT3-ITD cells): ~ 10 fold
melting point: 134 to 136 °C

CC(C)(C)c1cc(NC(=O)Cc2ccc(Nc3cc(Nc4ccc(S(C)(=O)=O)cc4)ncn3)cc2)no1 [13k, 2-(4-(6-(4-(Methylsulfonyl)phenylamino)pyrimidin-4-ylamino)phenyl)-N-(5-tert-butylisoxazol-3-yl)acetamide]
fold less active than 13a on FLT3 ([1]; enzymatic FLT3 IC50 compared with 13a): ~ 5 fold
IC50 [1]: 63 nM
LE [1]: 0.27
inhibition at 20 µM ([2]; at 20 µM): 60.7%
inhibition at 20 µM [3]: 71.9%
GI50 [4]: 2610 nM
melting point: 168 to 170 °C
